The results in this text go back to patent US7109193B2, “Tricyclic diazepines tocolytic oxytocin receptor antagonists” (Wyeth, priority 2001, dated 2006).

The target in the test is T1, human vasopressin V2 receptor subtype (Homo sapiens, UniProt P30518).
T1 construct: host or cells: CHO cells (pZeoSV vector)
Description: Vasopressin binding in Chinese Hamster Ovary cell membranes expressing human vasopressin V2 subtype receptors. The following applies: CHO cell membranes, [3H]arginine vasopressin; for IC50: values in parentheses; for inhibition at 0.1 µM: 100 nM, values without parentheses. A digest of the protocol: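 Radioligand displacement on membranes from CHO cells stably expressing human V2 receptor, 25 to 50 μg protein/well, in 50 mM Tris-HCl pH 7.4 with MgCl2, BSA and protease inhibitors. [^3H]arginine vasopressin (8 nM working solution) incubated 60 min at room temperature; bound label measured by filtration and scintillation counting.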

T1 sequence (P30518 whole entry): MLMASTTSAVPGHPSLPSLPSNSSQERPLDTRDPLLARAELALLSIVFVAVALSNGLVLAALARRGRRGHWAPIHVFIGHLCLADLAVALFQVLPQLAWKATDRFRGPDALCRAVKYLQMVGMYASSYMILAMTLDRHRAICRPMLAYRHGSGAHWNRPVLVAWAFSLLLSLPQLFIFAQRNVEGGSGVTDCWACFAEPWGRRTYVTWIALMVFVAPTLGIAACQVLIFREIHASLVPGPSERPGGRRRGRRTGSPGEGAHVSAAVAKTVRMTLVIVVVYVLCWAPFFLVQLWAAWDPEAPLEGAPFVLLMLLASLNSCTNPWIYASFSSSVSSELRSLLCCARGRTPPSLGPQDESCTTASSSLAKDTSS

Consider `COc1ccccc1-c1ccc(C(=O)N2Cc3ccc(C(=O)N4CCN(CCCN(C)C)CC4)n3Cc3ccccc32)cc1C` [Example 245, {4-[3-(Dimethylamino)propyl]-1-piperazinyl}{10-[(2′-methoxy-2-methyl[1,1′-biphenyl]-4-yl)carbonyl]-10,11-dihydro-5H-pyrrolo[2,1-c][1,4]benzodiazepin-3-yl}methanone], for which the IC50 was determined as 423 nM.
Consider `Cc1cc(C(=O)N2Cc3ccc(C(=O)N(C)CCCN(C)C)n3Cc3ccccc32)ccc1-c1ccccc1C(F)(F)F` [Example 97, N-[3-(Dimethylamino)propyl]-N-methyl-10-{[2-methyl-2′-(trifluoromethyl)[1,1′-biphenyl]-4-yl]carbonyl}-10,11-dihydro-5H-pyrrolo[2,1-c][1,4]benzodiazepine-3-carboxamide], for which the IC50 was 2000 nM.
Consider `COc1cccc(-c2ccc(C(=O)N3Cc4ccc(C(=O)N5CCC[C@H]5CN5CCCC5)n4Cc4ccccc43)cc2C)c1` [Example 263, {10-[(3′-Methoxy-2-methyl[1,1′-biphenyl]-4-yl)carbonyl]-10,11-dihydro-5H-pyrrolo[2,1-c][1,4]benzodiazepin-3-yl}[(2S)-2-(1-pyrrolidinylmethyl)pyrrolidinyl]methanone], for which the IC50 amounted to 4120 nM.
In the case of `COc1cc(C(=O)N2Cc3ccc(C(=O)NCCCN(C)C)n3Cc3ccccc32)ccc1-c1cccc2ccccc12` [Example 80, N-[3-(Dimethylamino)propyl]-10-[3-methoxy-4-(1-naphthyl)benzoyl]-10,11-dihydro-5H-pyrrolo[2,1-c][1,4]benzodiazepine-3-carboxamide], the inhibition at 0.1 µM came out at 43%.
As for `COc1cccc(-c2ccc(C(=O)N3Cc4ccc(C(=O)N(C)CCN(C)C)n4Cc4ccccc43)cc2OC)c1` [Example 95, 10-[(2,3′-Dimethoxy[1,1′-biphenyl]-4-yl)carbonyl]-N-[2-(dimethylamino)ethyl]-N-methyl-10,11-dihydro-5H-pyrrolo[2,1-c][1,4]benzodiazepine-3-carboxamide], the inhibition at 0.1 µM was determined as 13%.
With `COc1cc(-c2ccccc2Cl)c(Cl)cc1C(=O)N1Cc2ccc(C(=O)N(C)C3CCN(C)CC3)n2Cc2ccccc21` [Example 43, 10-[(2′-Chloro-6-chloro-3-methoxy-[1,1′-biphenyl]-4-yl)carbonyl]-N-methyl-N-(1-methylpiperidin-4-yl)-10,11-dihydro-5H-pyrrolo[2,1-c][1,4]benzodiazepine-3-carboxamide], the IC50 worked out at 409 nM.
For the compound `C=CCN1CCN(C(=O)c2ccc3n2Cc2ccccc2N(C(=O)c2ccc(-c4ccccc4C)c(C)c2)C3)CC1` [Example 220, (4-Allyl-1-piperazinyl){10-[(2,2′-dimethyl[1,1′-biphenyl]-4-yl)carbonyl]-10,11-dihydro-5H -pyrrolo[2,1-c][1,4]benzodiazepin-3-yl}methanone], the IC50 turned out to be 1820 nM.
For the compound `COc1cc(C(=O)N2Cc3ccc(C(=O)N(C)CCN(C)C)n3Cc3ccccc32)ccc1-c1cccc2ccccc12` [Example 93, N-[2-(Dimethylamino)ethyl]-10-[3-methoxy-4-(1-naphthyl)benzoyl]-N-methyl-10,11-dihydro-5H-pyrrolo[2,1-c][1,4]benzodiazepine-3-carboxamide], the inhibition at 0.1 µM turned out to be 36%.
For the compound `COc1cc(-c2ccccc2F)c(Cl)cc1C(=O)N1Cc2cccn2Cc2ccccc21` [Example 18B, 10-{[6-Chloro-3-methoxy-2′-fluoro-[1,1′-biphenyl]-4-yl]carbonyl}-10,11-dihydro-5H-pyrrolo[2,1-c][1,4]benzodiazepine], the IC50 turned out to be 189 nM.
On to `Cc1cc(C(=O)N2Cc3ccc(C(=O)NC(=N)N)n3Cc3ccccc32)ccc1-c1ccccc1C(F)(F)F` [Example 8, N-[(10-{[2-methyl-2′-(trifluoromethyl)[1,1′-biphenyl]-4-yl]carbonyl}-10,11-dihydro-5H-pyrrolo[2,1-c][1,4]benzodiazepin-3-yl)carbonyl]guanidine], for which the IC50 was found to be 1470 nM.
Take `COc1cc(-c2ccccc2C)c(Cl)cc1C(=O)N1Cc2ccc(C(=O)N(C)CCCN(C)C)n2Cc2ccccc21` [Example 98, 10-[(6-Chloro-3-methoxy-2′-methyl[1,1′-biphenyl]-4-yl)carbonyl]-N-[3-(dimethylamino)propyl]-N-methyl-10,11-dihydro-5H-pyrrolo[2,1-c][1,4]benzodiazepine-3-carboxamide]: the 50% inhibitory concentration (IC50) was found to be 1030 nM.
Still for that read-out and setting: the same measure for `Cc1cc(C(=O)N2Cc3ccc(C(=O)N4CCN(CCN(C)C)CC4)n3Cc3ccccc32)ccc1-c1ccccc1C(F)(F)F` [Example 196, {4-[2-(Dimethylamino)ethyl]-1-piperazinyl}(10-{[2-methyl-2′-(trifluoromethyl)[1,1′-biphenyl]-4-yl]carbonyl}-10,11-dihydro-5H-pyrrolo[2,1-c][1,4]benzodiazepin-3-yl)methanone]: 855 nM; for `COc1cc(C(=O)N2Cc3ccc(C(=O)N(C)CCN(C)C)n3Cc3ccccc32)ccc1-c1ccccc1C(F)(F)F` [Example 22, N-Methyl-[N-(2-dimethylamino)ethyl]-10-{[2-methoxy-2′-trifluoromethyl-[1,1′-biphenyl]-4-yl]carbonyl}-10,11-dihydro-5H-pyrrolo[2,1-c][1,4]benzodiazepine-3-carboxamide]: 1430 nM.
In the case of `Cc1cc(C(=O)N2Cc3ccc(C(=O)N4CCN(CCCN(C)C)CC4)n3Cc3ccccc32)ccc1-c1ccccc1C(F)(F)F` [Example 4, [4-(3-Dimethylaminopropyl)-piperazin-1-yl]-[10-(2-methyl-2′-trifluoromethyl-[1,1′-biphenyl]-4-yl)carbonyl]-[10,11-dihydro-5H-pyrrolo[2,1-c][1,4]benzodiazepin-3-yl]-methanone], the inhibition at 0.1 µM stood at 24%.
For `Cc1cc(C(=O)N2Cc3ccc(C(=O)N4CCN(C)CC4)n3Cc3ccccc32)ccc1-c1ccccc1C(F)(F)F` [Example 2, (4-Methyl-piperazin-1-yl)-[10-(2-methyl-2′-trifluoromethyl-[1,1′-biphenyl]-4-yl)-carbonyl]-10,11-dihydro-5H-pyrrolo[2,1-c][1,4]benzodiazepin-3-yl-methanone], the IC50 came to 1760 nM.
Same read-out and setting: under `COc1cccc(-c2ccc(C(=O)N3Cc4ccc(C(=O)N5CC[C@@H](N(C)C)C5)n4Cc4ccccc43)cc2C)c1` [Example 278, [(3R)-3-(Dimethylamino)pyrrolidinyl]{10-[(3′-methoxy-2-methyl[1,1′-biphenyl]-4-yl)carbonyl]-10,11-dihydro-5H-pyrrolo[2,1-c][1,4]benzodiazepin-3-yl}methanone] stands 1680 nM; under `O=C(c1ccc(-c2cccc3ccccc23)nc1)N1Cc2cccn2Cc2ccccc21` [Example 28, [6-(Naphthalen-1-yl)-pyridin-3-yl]-[10,11-dihydro-5H-pyrrolo[2,1-c][1,4]benzodiazepin-10-yl]methanone], 58.8 nM.
On to `COc1ccccc1-c1ccc(C(=O)N2Cc3ccc(C(=O)N(C)CCN(C)C)n3Cc3ccccc32)cc1OC` [Example 94, 10-[(2,2′-Dimethoxy[1,1′-biphenyl]-4-yl)carbonyl]-N-[2-(dimethylamino)ethyl]-N-methyl-10,11-dihydro-5H-pyrrolo[2,1-c][1,4]benzodiazepine-3-carboxamide], for which the inhibition at 0.1 µM was 26%.
For `COc1cc(C(=O)N2Cc3ccc(C(=O)N(C)CCCN(C)C)n3Cc3ccccc32)ccc1-c1ccccc1C(F)(F)F` [Example 21, N-Methyl-[N-(3-dimethylamino)propyl]-10-{[2-methoxy-2′-trifluoromethyl-[1,1′-biphenyl]-4-yl]carbonyl}-10,11-dihydro-5H-pyrrolo[2,1-c][1,4]benzodiazepin-3-carboxamide], the IC50 was found to be 1160 nM.
`C=CCN1CCN(C(=O)c2ccc3n2Cc2ccccc2N(C(=O)c2cc(Cl)c(-c4ccccc4C)cc2OC)C3)CC1` [Example 219, (4-Allyl-1-piperazinyl){10-[(6-chloro-3-methoxy-2′-methyl[1,1′-biphenyl]-4-yl)carbonyl]-10,11-dihydro-5H-pyrrolo[2,1-c][1,4]benzodiazepin-3-yl}methanone]: the IC50 is 1320 nM.
Turning to `COc1ccccc1-c1ccc(C(=O)N2Cc3ccc(C(=O)NCCCN(C)C)n3Cc3ccccc32)cc1OC` [Example 81, 10-[(2,2′-Dimethoxy[1,1′-biphenyl]-4-yl)carbonyl]-N-[3-(dimethylamino)propyl]-10,11-dihydro-5H-pyrrolo[2,1-c][1,4]benzodiazepine-3-carboxamide], the inhibition at 0.1 µM was 21%.
On to `COc1ccccc1-c1ccc(C(=O)N2Cc3ccc(C(=O)N4CCN(CCN(C)C)CC4)n3Cc3ccccc32)cc1C` [Example 195, {4-[2-(Dimethylamino)ethyl]-1-piperazinyl}{10-[(2′-methoxy-2-methyl[1,1′-biphenyl]-4-yl)carbonyl]-10,11-dihydro-5H-pyrrolo[2,1-c][1,4]benzodiazepin-3-yl}methanone], for which the IC50 was found to be 298 nM.
As to `COc1cc(-c2ccccc2C)c(Cl)cc1C(=O)N1Cc2ccc(C(=O)N3CCCN(C)CC3)n2Cc2ccccc21` [Example 60, {10-[(6-Chloro-3-methoxy-2′-methyl[1,1′-biphenyl]-4-yl)carbonyl]-10,11-dihydro-5H-pyrrolo[2,1-c][1,4]benzodiazepin-3-yl}(4-methyl-1,4-diazepan-1-yl)methanone], the IC50 turned out to be 1200 nM.
With `C=CCN1CCN(C(=O)c2ccc3n2Cc2ccccc2N(C(=O)c2ccc(-c4ccccc4OC)cc2)C3)CC1` [Example 221, (4-Allyl-1-piperazinyl){10-[(2′-methoxy[1,1′-biphenyl]4-yl)carbonyl]-10,11-dihydro-5H -pyrrolo[2,1-c][1,4]benzodiazepin-3-yl}methanone], the IC50 was determined as 833 nM.
Regarding `COc1cc(-c2ccccc2C)c(Cl)cc1C(=O)N1Cc2ccc(C(=O)N3CCC(N4CCCCC4)CC3)n2Cc2ccccc21` [Example 110, {10-[(6-Chloro-3-methoxy-2′-methyl[1,1′-biphenyl]-4-yl)carbonyl]-10,11-dihydro-5H-pyrrolo[2,1-c][1,4]benzodiazepin-3-yl}[4-(1-piperidinyl)-1-piperidinyl]methanone], the IC50 is 788 nM.

Broadly, the IC50 is the concentration that gives 50% inhibition. One may read the inhibition as the percentage by which the read-out fell short of the control.
